27 molecules from patent US9980943B2, “Methods of treating muscular dystrophy” (BOARD OF REGENTS OF THE NEVADA SYSTEM OF HIGHER EDUCATION, …, priority 2013, dated 2018) can be followed below.

This test relates to α7 integrin (LacZ reporter in α7LacZ+/− myoblasts). The test can be described thus: qHTS of the LOPAC library and MLSMR (online screen, α7LacZ+/− myoblasts). The following applies: for activation at 0.307 µM / activation at 1.53 µM / activation at 7.66 µM / activation at 38.3 µM / Emax / EC50: Mus musculus, Myoblast; for activation at 0.307 µM: read-out: Activity at 0.307 uM [%] **; for activation at 1.53 µM: read-out: Activity at 1.530 uM [%] **; for activation at 7.66 µM: read-out: Activity at 7.660 uM [%] **; for activation at 38.3 µM: read-out: Activity at 38.30uM [%] **; for EC50: read-out: Fit LogAC50 (converted). (In general: Quantitative high-throughput screening tests each substance at several concentrations.)

The mark [1] stands for this setting: 48 h, read-out: Fit Infinite Activity [%].

Each structure is given as a SMILES string. Read-outs that look alike come from different tables or passages of the source.

Method: A total of 250 α7LacZ^+/− myoblasts at passage 13 were dispensed using a multidrop (Thermo) into black low base tissue culture treated microclear aurora plates in 6 μl media containing DMEM without phenol, 5% FBS, 1× GluMax and 1× Penicillin/Streptomycin. […] Compounds were then dispensed using a Kalypsys pintool to deliver 23 nl/well compounds in DMSO (diluted into 6 μl resulting in a 1:260 dilution of compound). […] After incubation with compound, 5 μl of the media was aspirated using the Kalypsys washer/dispenser and 3 μl of the Mammalian Protein Extraction Reagent (MPER) lysis buffer (Thermo Fisher) was added. […] The plates were then incubated for 10 minutes at room temperature.
The assay was adapted for a high-throughput screen with the fully automated Kalypsys robotic system using 1536 well plates at NCGC.

Take `CC(=O)Nc1ccc(NC(=O)c2cc(=O)c3cc(C)cc(C)c3o2)cc1` [Compound 159]: for the setting “48 h”, the activation at 0.307 µM was -4.25%, the activation at 1.53 µM is -1.91%, the activation at 7.66 µM is 17.1% and the activation at 38.3 µM was found to be 106%. Under setting [1], the Emax is 107%. Also, the Emax (read-out: Max Response [%]) was 106%.

`CCCCS(=O)(=O)N1CCCC(C(=O)NCCc2ccccc2)C1` (stereo not shown) [Compound 111]: the EC50 was 7.08 µM. Under “48 h”, the activation at 0.307 µM was 4.12%, the activation at 1.53 µM was determined as 15.4%, the activation at 7.66 µM amounted to 54.6% and the activation at 38.3 µM stood at 89.9%. Further, the Emax under setting [1] was 101%. In addition, the Emax (read-out: Max Response [%]) amounted to 89.9%.

For `O=C1SC(Cc2ccccc2)C(=O)N1c1ccccc1` (stereo not shown) [Compound 50], the EC50 is 7.94 µM. Where the note is “48 h”, the activation at 0.307 µM was found to be 7.9%, the activation at 1.53 µM is 9.4%, the activation at 7.66 µM came to 94.1% and the activation at 38.3 µM was 176%. The Emax under setting [1] is 186%.

For the molecule `O=C(NCCc1ccc(F)cc1)N[C@@H](Cc1ccccc1)C(=O)O` [Compound 165], for the setting “48 h”, the activation at 0.307 µM is -20.5%, the activation at 1.53 µM was -20.4%, the activation at 7.66 µM came out at 0% and the activation at 38.3 µM stood at 108%. The Emax under setting [1] was 109%. For the same molecule, the Emax (read-out: Max Response [%]) amounted to 108%.

`Cc1c(C(=O)N2CCCCC2)c(S(=O)(=O)Nc2cccc(Br)c2)c(C)n1C` [Compound 155]: the EC50 was 10 µM. Besides, for the setting “48 h”, the activation at 0.307 µM is -32.1%, the activation at 1.53 µM is -31.8%, the activation at 7.66 µM is -9.12% and the activation at 38.3 µM was 60.5%. Further, under setting [1], the Emax worked out at 60.9%. The Emax (read-out: Max Response [%]) was found to be 60.5%.

As for `CN(C)/C=N/c1nccc(-c2cccs2)n1` [Compound 121], the EC50 is 8.91 µM. Also, under “48 h”, the activation at 0.307 µM amounted to 6.86%, the activation at 1.53 µM was 8.46%, the activation at 7.66 µM is 45% and the activation at 38.3 µM is 92.6%. In addition, the Emax under setting [1] was 97.8%. The Emax (read-out: Max Response [%]) came to 92.6%.

Turning to `CCCCNC(=O)CSc1nnc(Cc2ccc(Cl)c(Cl)c2)c(O)n1` [Compound 34], the EC50 is 1.41 µM. For the same molecule, for the setting “48 h”, the activation at 0.307 µM was determined as 9.41%, the activation at 1.53 µM stood at 43.8%, the activation at 7.66 µM was 74.3% and the activation at 38.3 µM is 75.4%. Besides, the Emax under setting [1] worked out at 76.4%.

Turning to `C/N=C(\S)N1CCC(NC(=O)C(Cc2ccc(F)cc2)NC(C)=O)CC1` (stereo not shown) [Compound 82], the EC50 is 3.16 µM. In addition, where the note is “48 h”, the activation at 0.307 µM is 0%, the activation at 1.53 µM was 23.1%, the activation at 7.66 µM was 63.7% and the activation at 38.3 µM was determined as 84.7%. In addition, the Emax under setting [1] is 90%. Also, under “read-out: Max Response [%]”, the Emax is 84.7%.

For the molecule `Cc1nnc(NC(=O)CSc2nnc(CCNC(=O)c3ccccc3F)n2C)s1` [Compound 147], where the note is “48 h”, the activation at 0.307 µM came out at 0.45%, the activation at 1.53 µM was found to be 2.7%, the activation at 7.66 µM is 29.1% and the activation at 38.3 µM worked out at 84.9%. Moreover, the Emax under setting [1] came to 91.2%. Besides, for the setting “read-out: Max Response [%]”, the Emax amounted to 84.9%.

`Cc1ccc(CNc2ncnc(N)c2[N+](=O)[O-])cc1` [Compound 120]: the EC50 is 10 µM. Moreover, under “48 h”, the activation at 0.307 µM came out at 17.8%, the activation at 1.53 µM worked out at 33.8%, the activation at 7.66 µM came out at 63.4% and the activation at 38.3 µM is 97.4%. For the same molecule, the Emax under setting [1] came to 127%. For the setting “read-out: Max Response [%]”, the Emax was found to be 97.4%.

Turning to `CS(=O)(=O)c1ccc(Cl)c(NC(=O)CSc2nncn2-c2ccccc2)c1` [Compound 55], the EC50 was 12.6 µM. For the same molecule, where the note is “48 h”, the activation at 0.307 µM is -24.6%, the activation at 1.53 µM is -12.1%, the activation at 7.66 µM was 3.46% and the activation at 38.3 µM was 252%. The Emax under setting [1] was 253%. For the same molecule, the Emax (read-out: Max Response [%]) stood at 252%.

Regarding `COc1ccc(-c2csc3ncnc(N4CCN(c5ccccc5[N+](=O)[O-])CC4)c23)cc1` [Compound 94], the EC50 is 10 µM. Also, where the note is “48 h”, the activation at 0.307 µM is 11.5%, the activation at 1.53 µM is 8.66%, the activation at 7.66 µM was found to be 36.5% and the activation at 38.3 µM worked out at 138%. The Emax under setting [1] came out at 138%. The Emax (read-out: Max Response [%]) worked out at 138%. The Score (Table 8 Compound data) came out at 43.

On to `O=C(COC(=O)Cn1cnc2ccccc21)Nc1cccc([N+](=O)[O-])c1` [Compound 119], for which the EC50 was 11.2 µM. Also, for the setting “48 h”, the activation at 0.307 µM is -17.1%, the activation at 1.53 µM is -14.7%, the activation at 7.66 µM was 0.628% and the activation at 38.3 µM was 112%. In addition, under setting [1], the Emax turned out to be 112%. Further, for the setting “read-out: Max Response [%]”, the Emax was determined as 112%.

As for `NS(=O)(=O)c1ccc(NC(=O)Nc2ccc(Cl)cc2)cc1` [Compound 202], the Score came out at 42.

Take `Cc1ccccc1C(=O)Nc1scc(-c2ccc(Br)cc2)c1C(=O)O` [Compound 4]: the EC50 is 2.82 µM. Where the note is “48 h”, the activation at 0.307 µM worked out at 9.85%, the activation at 1.53 µM came out at 38.3%, the activation at 7.66 µM turned out to be 119% and the activation at 38.3 µM stood at 137%. Moreover, the Emax under setting [1] turned out to be 137%.

In the case of `CCCC(=O)Nc1ccccc1NC(=O)c1ccc(OCC)cc1` [Compound 206], for the setting “48 h”, the activation at 0.307 µM was determined as 12.1%, the activation at 1.53 µM worked out at 15.3%, the activation at 7.66 µM was 28.5% and the activation at 38.3 µM came to 91.2%. Under setting [1], the Emax was 91.9%. In addition, the Emax (read-out: Max Response [%]) was 91.2%.

In the case of `COCCSc1ccccc1C(=O)Nc1cc(C)cc(C)c1` [Compound 22], the EC50 is 4.47 µM. Also, for the setting “48 h”, the activation at 0.307 µM is 0%, the activation at 1.53 µM came to 0%, the activation at 7.66 µM came out at 78.3% and the activation at 38.3 µM amounted to 82.9%. Further, the Emax under setting [1] worked out at 83.1%.

As for `COc1nccc(NCc2ccccc2)c1C#N` [Compound 169], the EC50 is 10 µM. For the same molecule, for the setting “48 h”, the activation at 0.307 µM is -18.2%, the activation at 1.53 µM is -21.6%, the activation at 7.66 µM is 0.301% and the activation at 38.3 µM was found to be 64.3%. Under setting [1], the Emax is 64.8%. For the same molecule, under “read-out: Max Response [%]”, the Emax worked out at 64.3%.

Regarding `COC(=O)C1=NNC2(C)C(=O)N(c3ccc(C)cc3)C(=O)C12` (stereo not shown) [Compound 177], the EC50 was 10 µM. Besides, where the note is “48 h”, the activation at 0.307 µM came out at 1.31%, the activation at 1.53 µM worked out at 0.295%, the activation at 7.66 µM amounted to 16.2% and the activation at 38.3 µM was 71.1%. Further, under setting [1], the Emax worked out at 71.5%. In addition, the Emax (read-out: Max Response [%]) was 71.1%.

As to `CN(C)S(=O)(=O)c1cccc(C(=O)Nc2ccc3c(c2)CCC3)c1` [Compound 8], the EC50 is 2.82 µM. Besides, for the setting “48 h”, the activation at 0.307 µM was -15.4%, the activation at 1.53 µM was -10.6%, the activation at 7.66 µM came to 96.4% and the activation at 38.3 µM came out at 94.3%. In addition, the Emax under setting [1] was 96%.

On to `Fc1ccc(-c2ccnn2-c2ccccc2)cc1` [Compound 107], for which the EC50 was 4.47 µM. Besides, for the setting “48 h”, the activation at 0.307 µM was -17.2%, the activation at 1.53 µM was -3.24%, the activation at 7.66 µM came out at 46% and the activation at 38.3 µM was 73.3%. The Emax under setting [1] was 76.4%. The Emax (read-out: Max Response [%]) was determined as 73.3%.

Take `CC(=O)c1ccc(N(C(=O)CNC(=O)c2ccco2)C(C(=O)NC2CCCC2)c2ccc(C)o2)cc1` (stereo not shown) [Compound 146]: the EC50 is 10 µM. Where the note is “48 h”, the activation at 0.307 µM was -20.8%, the activation at 1.53 µM is -20.9%, the activation at 7.66 µM amounted to 0% and the activation at 38.3 µM came out at 75.5%. The Emax under setting [1] amounted to 75.5%. Besides, the Emax (read-out: Max Response [%]) was determined as 75.5%.

In the case of `O=Cc1cnc(N2CCCCC2)s1` [Compound 191], for the setting “48 h”, the activation at 0.307 µM was -18.1%, the activation at 1.53 µM is -20%, the activation at 7.66 µM is -4.2% and the activation at 38.3 µM is 96%. Moreover, the Emax under setting [1] turned out to be 96.3%. Besides, the Emax (read-out: Max Response [%]) worked out at 96%.

With `c1ccc(CN2CCCC3(CCCN(Cc4nc(CC5CC5)no4)C3)C2)cc1` (stereo not shown) [Compound 200], where the note is “48 h”, the activation at 0.307 µM was -40.9%, the activation at 1.53 µM is -35.8%, the activation at 7.66 µM amounted to 1.57% and the activation at 38.3 µM amounted to 46.2%. For the same molecule, the Emax under setting [1] is 56.6%. For the same molecule, the Emax (read-out: Max Response [%]) was determined as 46.2%.

As for `COCCn1c(=N)c(S(=O)(=O)c2ccc(Br)cc2)cc2c(=O)n3ccccc3nc21` [Compound 96], the EC50 is 4.47 µM. Besides, under “48 h”, the activation at 0.307 µM is -7.89%, the activation at 1.53 µM amounted to 1.1%, the activation at 7.66 µM was found to be 54.5% and the activation at 38.3 µM was 73.2%. For the same molecule, under setting [1], the Emax amounted to 75%. Further, the Emax (read-out: Max Response [%]) amounted to 73.2%.

In the case of `O=C(Nc1ccc(N2CCN(C(=O)c3ccccc3F)CC2)cc1)c1cncc(Br)c1` [Compound 144], for the setting “48 h”, the activation at 0.307 µM turned out to be 8.54%, the activation at 1.53 µM is 11.1%, the activation at 7.66 µM came to 20.4% and the activation at 38.3 µM was 103%. Also, the Emax under setting [1] was 104%. In addition, the Emax (read-out: Max Response [%]) came out at 103%.

For the molecule `COCc1c(C(=O)N/N=C(\C)c2ccc(OCc3ccccc3)cc2)nnn1-c1nonc1N` [Compound 143], the EC50 is 10 µM. Also, for the setting “48 h”, the activation at 0.307 µM was 4.28%, the activation at 1.53 µM worked out at 4.88%, the activation at 7.66 µM is 22.4% and the activation at 38.3 µM was determined as 80.8%. Also, the Emax under setting [1] came out at 81.3%. Further, the Emax (read-out: Max Response [%]) came to 80.8%.
